Assay: mn = molality of the nth substance listed, in mol/kg
Settings: for surface tension liquid-gas: Ring tensiometer; for electrical conductivity: 100 kPa, Liquid, Alternating current cell with electrodes

CCCCCCCCCCCCCCCC[NH+](CCO)CC(C)O.[Cl-] (configuration not stated) + O
Settings | electrical conductivity [S/m] | surface tension liquid-gas [mN/m]
293.15 K, m1 = 1.052e-05 | – | 59.82
293.15 K, m1 = 1.579e-05 | – | 56.69
293.15 K, m1 = 2.631e-05 | – | 52.01
293.15 K, m1 = 5.263e-05 | – | 45.56
293.15 K, m1 = 0.0001052 | – | 39.23
293.15 K, m1 = 0.0001263 | 0.000446 | –
293.15 K, m1 = 0.0001316 | 0.000471 | –
293.15 K, m1 = 0.0001368 | 0.000496 | –
293.15 K, m1 = 0.0001421 | 0.000522 | –
293.15 K, m1 = 0.0001473 | 0.000548 | –
293.15 K, m1 = 0.0001526 | 0.000573 | –
293.15 K, m1 = 0.0001579 | 0.000595 | 35.88
293.15 K, m1 = 0.000171 | 0.00061 | –
293.15 K, m1 = 0.0001842 | 0.000621 | –
293.15 K, m1 = 0.0001973 | 0.000633 | –
293.15 K, m1 = 0.0002105 | 0.000644 | 34.88
293.15 K, m1 = 0.0002236 | 0.000655 | –
293.15 K, m1 = 0.0002368 | 0.000667 | –
293.15 K, m1 = 0.00025 | 0.000678 | –
293.15 K, m1 = 0.0002631 | 0.000689 | 34.06
293.15 K, m1 = 0.0002763 | 0.000701 | –
293.15 K, m1 = 0.0002894 | 0.000712 | –
293.15 K, m1 = 0.0003026 | 0.000723 | –
293.15 K, m1 = 0.0003157 | 0.000737 | –
293.15 K, m1 = 0.0005262 | – | 32.43
293.15 K, m1 = 0.001053 | – | 31.43
293.15 K, m1 = 0.001579 | – | 31.07
298.15 K, m1 = 7.893e-06 | – | 56.32
298.15 K, m1 = 1.052e-05 | – | 54.11
298.15 K, m1 = 1.579e-05 | – | 50.72
298.15 K, m1 = 2.631e-05 | – | 46.33
298.15 K, m1 = 5.263e-05 | – | 40.82
298.15 K, m1 = 9.47e-05 | 0.000409 | –
298.15 K, m1 = 0.0001016 | 0.000433 | –
298.15 K, m1 = 0.0001052 | – | 35.11
298.15 K, m1 = 0.0001085 | 0.000458 | –
298.15 K, m1 = 0.0001154 | 0.000482 | –
298.15 K, m1 = 0.0001223 | 0.000507 | –
298.15 K, m1 = 0.0001293 | 0.000531 | –
298.15 K, m1 = 0.0001362 | 0.000556 | –
298.15 K, m1 = 0.0001431 | 0.000581 | –
298.15 K, m1 = 0.00015 | 0.000606 | 32.52
298.15 K, m1 = 0.0001618 | 0.000621 | –
298.15 K, m1 = 0.0001737 | 0.000637 | –
298.15 K, m1 = 0.0001855 | 0.000653 | –
298.15 K, m1 = 0.0001973 | 0.000669 | –
298.15 K, m1 = 0.0002092 | 0.000684 | –
298.15 K, m1 = 0.0002105 | – | 31.91
298.15 K, m1 = 0.000221 | 0.0007 | –
298.15 K, m1 = 0.0002329 | 0.000716 | –
298.15 K, m1 = 0.0002447 | 0.000732 | –
298.15 K, m1 = 0.0002565 | 0.000748 | –
298.15 K, m1 = 0.0002631 | – | 31.41
298.15 K, m1 = 0.0002684 | 0.000764 | –
298.15 K, m1 = 0.0002802 | 0.00078 | –
298.15 K, m1 = 0.0002921 | 0.000796 | –
298.15 K, m1 = 0.0003039 | 0.000811 | –
298.15 K, m1 = 0.0003157 | 0.000829 | –
298.15 K, m1 = 0.0005262 | – | 30.8
298.15 K, m1 = 0.001053 | – | 30.03
298.15 K, m1 = 0.001579 | – | 29.71
303.15 K, m1 = 6.578e-06 | – | 52.23
303.15 K, m1 = 7.893e-06 | – | 50.81
303.15 K, m1 = 1.052e-05 | – | 48.55
303.15 K, m1 = 1.579e-05 | – | 45.89
303.15 K, m1 = 2.631e-05 | – | 42.23
303.15 K, m1 = 5.263e-05 | – | 37.06
303.15 K, m1 = 9.47e-05 | 0.000467 | –
303.15 K, m1 = 9.9e-05 | 0.000486 | –
303.15 K, m1 = 0.0001033 | 0.000505 | –
303.15 K, m1 = 0.0001052 | – | 32.07
303.15 K, m1 = 0.0001075 | 0.000524 | –
303.15 K, m1 = 0.0001118 | 0.000544 | –
303.15 K, m1 = 0.0001161 | 0.000563 | –
303.15 K, m1 = 0.0001204 | 0.000582 | –
303.15 K, m1 = 0.0001247 | 0.000601 | –
303.15 K, m1 = 0.0001289 | 0.000621 | –
303.15 K, m1 = 0.0001315 | – | 31.01
303.15 K, m1 = 0.0001423 | 0.000643 | –
303.15 K, m1 = 0.0001556 | 0.000666 | –
303.15 K, m1 = 0.0001579 | – | 30.51
303.15 K, m1 = 0.000169 | 0.000689 | –
303.15 K, m1 = 0.0001823 | 0.000712 | –
303.15 K, m1 = 0.0001956 | 0.000735 | –
303.15 K, m1 = 0.000209 | 0.000757 | –
303.15 K, m1 = 0.0002105 | – | 30.45
303.15 K, m1 = 0.0002223 | 0.00078 | –
303.15 K, m1 = 0.0002357 | 0.000803 | –
303.15 K, m1 = 0.000249 | 0.000826 | –
303.15 K, m1 = 0.0002624 | 0.000849 | –
303.15 K, m1 = 0.0002631 | – | 30.43
303.15 K, m1 = 0.0002757 | 0.000872 | –
303.15 K, m1 = 0.0002891 | 0.000895 | –
303.15 K, m1 = 0.0003024 | 0.000918 | –
303.15 K, m1 = 0.0003157 | 0.000944 | –
303.15 K, m1 = 0.0005262 | – | 29.89
303.15 K, m1 = 0.001053 | – | 29.16
303.15 K, m1 = 0.001579 | – | 28.81
308.15 K, m1 = 4.604e-06 | – | 52.01
308.15 K, m1 = 7.893e-06 | – | 48.13
308.15 K, m1 = 1.052e-05 | – | 46
308.15 K, m1 = 1.579e-05 | – | 43.23
308.15 K, m1 = 2.631e-05 | – | 39.78
308.15 K, m1 = 5.263e-05 | – | 35.06
308.15 K, m1 = 7.37e-05 | 0.000445 | –
308.15 K, m1 = 8.04e-05 | 0.000472 | –
308.15 K, m1 = 8.72e-05 | 0.0005 | –
308.15 K, m1 = 9.4e-05 | 0.000528 | –
308.15 K, m1 = 0.0001007 | 0.000556 | –
308.15 K, m1 = 0.0001075 | 0.000583 | –
308.15 K, m1 = 0.0001143 | 0.000611 | –
308.15 K, m1 = 0.000121 | 0.00064 | 29.71
308.15 K, m1 = 0.00013 | 0.000659 | –
308.15 K, m1 = 0.0001389 | 0.000679 | –
308.15 K, m1 = 0.0001479 | 0.000699 | –
308.15 K, m1 = 0.0001568 | 0.000719 | –
308.15 K, m1 = 0.0001579 | – | 29.44
308.15 K, m1 = 0.0001658 | 0.000739 | –
308.15 K, m1 = 0.0001747 | 0.000759 | –
308.15 K, m1 = 0.0001837 | 0.000778 | –
308.15 K, m1 = 0.0001926 | 0.000798 | –
308.15 K, m1 = 0.0002015 | 0.000818 | –
308.15 K, m1 = 0.0002105 | 0.000839 | 29.16
308.15 K, m1 = 0.0002194 | 0.000858 | –
308.15 K, m1 = 0.0002284 | 0.000878 | –
308.15 K, m1 = 0.0002373 | 0.000898 | –
308.15 K, m1 = 0.0002463 | 0.000917 | –
308.15 K, m1 = 0.0002552 | 0.000937 | –
308.15 K, m1 = 0.0002631 | – | 29.02
308.15 K, m1 = 0.0002642 | 0.000957 | –
308.15 K, m1 = 0.0002731 | 0.000977 | –
308.15 K, m1 = 0.0002821 | 0.000997 | –
308.15 K, m1 = 0.000291 | 0.00102 | –
308.15 K, m1 = 0.0005262 | – | 28.71
308.15 K, m1 = 0.001053 | – | 28.26
308.15 K, m1 = 0.001579 | – | 28.07

Reference: the NIST ThermoML archive (doi:10.1021/acs.jced.7b00347)
